# Literature values as cited in patent US20090252647A1, “COMPOSITIONS AND METHODS FOR APPLYING ANTIMICROBIALS TO SUBSTRATES” (Crosstex International, Inc., priority 2008, published 2009).
smiles,measurement,value
CCCCCCCCCCCCCCCCCC[N+](C)(C)CCC[Si](O)(O)O.[Cl-] [3-(trihydroxysilyl)propyldimethyloctadecyl ammonium chloride],solubility in water,approximately 15 % w/v
